Measured values published in patent US10556008B2, “Methods of treatment of keloid using an anti-VEGF agent” (priority 2012, dated 2020).
“Also recorded” adds a separate entry of the source.

How the values were obtained:
[1] = commercially available topical steroids (skin); cited from earlier work
[2] = test system: pterygium recurrence; experiment: Treatment of pterygium recurrence after pterygiectomy with bevacizumab, with or without combination therapy (Patients 1-5); type: in vivo, human; conditions: for Time without recurrence of pterygium: steroid and NSAID; for No pterygium regrowth observed as of (time after surgery): after third surgical removal and conjunctival grafting; for No pterygium regrowth observed as of (time after surgery) / No regrowth of pterygium observed as of (time after surgery): bevacizumab injections, NSAID eye drops; for No regrowth of pterygium observed as of (time after surgery): steroid eye drops
Excerpt: A topical anesthetic (proparacaine 0.5% eye drops or Alcaine manufactured by Alcon Laboratories Inc.) was applied to the eye following recent pterygiectomy (from ˜5 days to 2 months following surgery). The patients were examined to identify vascular growth on eye conjunctiva. […] If blood was present (indicating presence of blood vessel), the syringe needle was withdrawn. […] If bleeding occurred (e.g., in the form of subconjunctival or subcutaneous hematoma), tamponade with Q-Tips® was performed until bleeding stopped; then injection was resumed.
Anti-inflammatory steroid drops (prednisolone acetate 1% (Allergan)) were given for 6 weeks with frequency range from once a day to 4 times a day (every 6 hours) to every hour (24 drops/day). NSAID eye drops (Diclofenac 0.1% (Bausch and Lomb)) drops (1 mg/mL to 100 mg/mL) were given multiple times, 4 times a day every 6 hours for 3 to 6 months.
Patients were followed up to monitor for appearance of new blood vessel growth in the eye.
Five patients (Patients 1-5) underwent surgery to remove primary pterygium (pterygiectomy) from the cornea of one or both eyes followed by conjunctival grafting were treated as described below.

[3] = test system: recurrent pterygium; conditions: bevacizumab not as part of the combination therapy; temporarily = e.g. 6 months or less; cited from earlier work

| Compound | Potency [1] | Time without recurrence of pterygium ([2]; FIG. 2 (Patient 2), combination therapy of bevacizumab) | Time without recurrence of pterygium ([2]; FIG. 4 (Patient 4), combination therapy of bevacizumab) | Time without recurrence of pterygium ([2]; FIG. 5 (Patient 5), combination therapy of bevacizumab) | Time without recurrence of pterygium ([2]; FIGS. 3A, 3B (Patient 3), combination therapy of bevacizumab) | Pterygium Recurrence ([2]; Patient 1, Right eye, bevacizumab + steroid (injected and/or eye drops) + topical NSAID eye drops) | No pterygium regrowth observed as of (time after surgery) ([2]; Patient 1 right eye, bevacizumab+Kenalog injection) | Pterygium Recurrence ([2]; Patient 2, Left eye, bevacizumab + steroid (injected and/or eye drops) + topical NSAID eye drops) | No pterygium regrowth observed as of (time after surgery) ([2]; Patient 2 left eye, bevacizumab and Kenalog injections) | Pterygium recurrence after bevacizumab injection alone ([2]; Patient 2 left eye, single bevacizumab injection on Day 17 after second surgical removal, no steroid or NSAID) | Pterygium Recurrence ([2]; Patient 3 (number not printed in row), Left Eye, bevacizumab + steroid (Kenalog injection), no NSAID) | Pterygium Recurrence ([2]; Patient 3 (number not printed in row), Right Eye, bevacizumab + steroid + topical NSAID eye drops) | No regrowth of pterygium observed as of (time after surgery) ([2]; Patient 3 right eye, after surgical removal and amniotic membrane grafting) | Pterygium Recurrence ([2]; Patient 4, Right Eye, bevacizumab + steroid + topical NSAID eye drops) | No regrowth of pterygium observed as of (time after surgery) ([2]; Patient 4 right eye, after first surgical procedure, bevacizumab and Kenalog injections) | Pterygium Recurrence ([2]; Patient 5, Right Eye, bevacizumab + steroid + topical NSAID eye drops) | Pterygium regrowth (overall conclusion) ([2]; combination therapy of bevacizumab, anti-inflammatory steroid (injected or topical) and topical NSAID, Patients 1-5) | Combination therapy compared with bevacizumab alone ([2]; combination therapy of bevacizumab, anti-inflammatory steroid and topical NSAID vs bevacizumab alone) | Effect on recurrent pterygium reported in the literature [3] |
| --- | --- | --- | --- | --- | --- | --- | --- | --- | --- | --- | --- | --- | --- | --- | --- | --- | --- | --- | --- |
| CC(=O)OCC(=O)[C@@]12OC3(CCCC3)O[C@@H]1C[C@H]1[C@@H]3CCC4=CC(=O)C=C[C@]4(C)[C@@]3(F)[C@@H](O)C[C@@]12C [Amcinonide] | High |  |  |  |  |  |  |  |  |  |  |  |  |  |  |  |  |  |  |
| CCCCC(=O)O[C@]1(C(=O)CO)[C@@H](C)C[C@H]2[C@@H]3CCC4=CC(=O)C=C[C@]4(C)[C@@]3(F)[C@@H](O)C[C@@]21C [Betamethasone valerate] | Medium-Low |  |  |  |  |  |  |  |  |  |  |  |  |  |  |  |  |  |  |
| Bevacizumab: 149-Kd full length humanized anti-vascular endothelial growth factor (anti-VEGF) antibody |  | > 8 months | > 9 months | > 3 months | > 6 months | No | about 520 days | No | about 240 days | further recurrence of the pterygium | completely regrew and Yes | No | about 130 days | No | about 250 days | No | inhibited | superior | not effective or only temporarily effective; also recorded: temporary treatment |
